In data set [1] the test system is MDA-MB-231. As to the kind of experiment: Cell cycle arrest in human triple-negative MDA-MB-231 cells assessed as accumulation at G2/M phase at 2.5 uM after 12 hrs by propidium iodide staining-based flow cytometry (reference value: 20.40%). It is filed as functional.
Data set [2] deals with MDA-MB-231. As to the kind of experiment: Cell cycle arrest in human triple-negative MDA-MB-231 cells assessed as accumulation at S phase at 2.5 uM after 12 hrs by propidium iodide staining-based flow cytometry (reference value: 31.23%). In kind it is functional.
Data set [3] has as its system MDA-MB-231. Put plainly: Induction of apoptosis in human triple-negative MDA-MB-231 cells assessed as early apoptotic cells after 12 hrs by Annexin V-FITC/propidium iodide staining-based flow cytometry (reference value: 3.1%). It is filed as functional.
Data set [4] relates to MDA-MB-231. Put plainly: Induction of apoptosis in human triple-negative MDA-MB-231 cells at 2.5 uM after 6 to 48 hrs by microscopic analysis. In kind it is functional, cell-based.
Data set [5] concerns MDA-MB-231. As to the kind of experiment: Induction of apoptosis in human triple-negative MDA-MB-231 cells assessed as necrotic cells after 12 hrs by Annexin V-FITC/propidium iodide staining-based flow cytometry (reference value: 0.1%). In kind it is functional.
For data set [6], the system named is MDA-MB-231. Put plainly: Induction of apoptosis in human triple-negative MDA-MB-231 cells assessed as viable cells after 12 hrs by Annexin V-FITC/propidium iodide staining-based flow cytometry (reference value: 93.1%). In kind it is functional.
Data set [7] has as its system MDA-MB-231. Put plainly: Cell cycle arrest in human triple-negative MDA-MB-231 cells assessed as accumulation at G0/G1 phase at 2.5 uM after 12 hrs by propidium iodide staining-based flow cytometry (reference value: 48.36%). It is filed as functional.
Data set [8] relates to MDA-MB-231. Put plainly: Antiproliferative activity against human triple-negative MDA-MB-231 cells after 72 hrs by CellTiter-Glo assay. In kind it is functional, cell-based.
Data set [9] relates to MDA-MB-231. As to the kind of experiment: Induction of apoptosis in human triple-negative MDA-MB-231 cells assessed as increase in DR5 level after 12 hrs by western blot analysis. In kind it is functional, cell-based.
Data set [10] relates to MDA-MB-231. Put plainly: Cell cycle arrest in human triple-negative MDA-MB-231 cells assessed as accumulation at G0/G1 phase at 28.5 uM after 12 hrs by propidium iodide staining-based flow cytometry (reference value: 48.36%). In kind it is functional.
Data set [11] concerns MDA-MB-231. As to the kind of experiment: Induction of apoptosis in human triple-negative MDA-MB-231 cells assessed as increase in cleaved caspase-9 level after 6 to 12 hrs by western blot analysis. It is filed as functional, cell-based.
The test system of data set [12] is MDA-MB-231. As to the kind of experiment: Induction of apoptosis in human triple-negative MDA-MB-231 cells assessed as late apoptotic cells after 12 hrs by Annexin V-FITC/propidium iodide staining-based flow cytometry (reference value: 3.7%). It is filed as functional.
The test system of data set [13] is MDA-MB-231. Put plainly: Antiproliferative activity against human triple-negative MDA-MB-231 cells at <= 50 uM after 72 hrs by CellTiter-Glo assay. In kind it is functional, cell-based.
For another data set, the system named is HepG2. As to the kind of experiment: Cytotoxicity against human HepG2 cells at <= 50 uM after 72 hrs by CellTiter-Glo assay. It is filed as cell-based. Conditions: hepg2, 72 h.
Data set [14] has as its system MDA-MB-231. Put plainly: Cell cycle arrest in human triple-negative MDA-MB-231 cells assessed as accumulation at G2/M phase at 28.5 uM after 12 hrs by propidium iodide staining-based flow cytometry (reference value: 20.40%). It is filed as functional.
A further data set deals with HEK293. Put plainly: Cytotoxicity against HEK293 cells at <= 50 uM after 72 hrs by CellTiter-Glo assay. Conditions: human, hek293, 72 h. It is filed as cell-based.
Data set [15] concerns MDA-MB-231. Put plainly: Induction of apoptosis in human triple-negative MDA-MB-231 cells assessed as increase in cleaved PARP level by western blot analysis. In kind it is functional, cell-based. Conditions: TDE = time-dependent effect.
In data set [16] the test system is MDA-MB-231. As to the kind of experiment: Cell cycle arrest in human triple-negative MDA-MB-231 cells assessed as accumulation at S phase at 28.5 uM after 12 hrs by propidium iodide staining-based flow cytometry (reference value: 31.23%). It is filed as functional.
Data set [17] has as its system MDA-MB-231. As to the kind of experiment: Antiproliferative activity against human triple-negative MDA-MB-231 cells at 29 uM after 72 hrs by CellTiter-Glo assay. In kind it is functional, cell-based.
In data set [18] the test system is MDA-MB-231. As to the kind of experiment: Induction of apoptosis in human triple-negative MDA-MB-231 cells assessed as decrease in caspase-7 level after 6 to 12 hrs by western blot analysis. It is filed as functional, cell-based.
For data set [19], the system named is MDA-MB-231. Put plainly: Cell cycle arrest in human triple-negative MDA-MB-231 cells assessed as accumulation at G0/G1 phase at 30.0 uM after 12 hrs by propidium iodide staining-based flow cytometry (reference value: 48.36%). In kind it is functional.
Data set [20] has as its system MDA-MB-231. Put plainly: Induction of apoptosis in human triple-negative MDA-MB-231 cells assessed as increase in cleaved caspase-3 level after 6 to 12 hrs by western blot analysis. It is filed as functional, cell-based.
The next data set has as its system MCF7. As to the kind of experiment: Antiproliferative activity against human ER-positive MCF7 cells at 48 uM after 72 hrs by CellTiter-Glo assay. It is filed as functional, cell-based.
Data set [21] relates to MDA-MB-231. As to the kind of experiment: Induction of DNA fragmentation in human triple-negative MDA-MB-231 cells at 30 uM by propidium iodide staining-based flow cytometry. It is filed as functional, cell-based.
In data set [22] the test system is MDA-MB-231. As to the kind of experiment: Cell cycle arrest in human triple-negative MDA-MB-231 cells assessed as accumulation at G2/M phase at 30.0 uM after 12 hrs by propidium iodide staining-based flow cytometry (reference value: 20.40%). It is filed as functional.
The test system of data set [23] is MDA-MB-231. As to the kind of experiment: Induction of apoptosis in human triple-negative MDA-MB-231 cells assessed as increase in cleaved caspase-8 level after 6 to 12 hrs by western blot analysis. It is filed as functional, cell-based.
Data set [24] concerns MDA-MB-231. Put plainly: Cell cycle arrest in human triple-negative MDA-MB-231 cells assessed as accumulation at S phase at 30.0 uM after 12 hrs by propidium iodide staining-based flow cytometry (reference value: 31.23%). It is filed as functional.
For another data set, the species on record is Homo sapiens. Put plainly: Antiproliferative activity against human ER-positive MA11 cells at 48 uM after 72 hrs by CellTiter-Glo assay. It is filed as functional.
The test system of data set [25] is MDA-MB-231. As to the kind of experiment: Antiproliferative activity against human triple-negative MDA-MB-231 cells at 35 uM after 72 hrs by CellTiter-Glo assay. In kind it is functional, cell-based.

Calls of active or inactive are those of the source. No cut-off for these calls is given here.

Regarding `CN[C@@H]1C[C@H]2O[C@@](C)([C@@H]1OC)n1c3ccccc3c3c4c(c5c6ccccc6n2c5c31)C(=O)NC4` [STAUROSPORINE], the Activity is reported as 23.28% in the data set on MDA-MB-231 [1]; 33.22% in the data set on MDA-MB-231 [2]; 25% in the data set with MDA-MB-231 [3]; 0.5% in the data set on MDA-MB-231 [5]; 55.7% in the data set on MDA-MB-231 [6]; 43.5% in the data set with MDA-MB-231 [7]. Also, the result with MDA-MB-231 [4] was inactive.

For `CC(C)C1=CC2=CC[C@@H]3[C@](C)(CCC[C@@]3(C)C(=O)O)[C@H]2CC1`, the result with MDA-MB-231 [8] was inactive.

Take `CC(C)c1cc2c(cc1O)[C@@]1(C)CCCC(C)(C)[C@@H]1CC2` [FERRUGINOL]: the result with MDA-MB-231 [9], in the data set on MDA-MB-231 [13], in the data set with MDA-MB-231 [17] and in the data set with MDA-MB-231 [18] was Active. The Activity in the data set on MDA-MB-231 [10] is listed as 50.76%; in the data set on MDA-MB-231 [3], 4.4%; in the data set with MDA-MB-231 [12] it was 9.6%; in the data set on MDA-MB-231 [5], 0.2%; in the data set on MDA-MB-231 [6], 85.8%; with HepG2, “Non-toxic”. In addition, the Activity in the data set with MDA-MB-231 [14] is 19.54%; with HEK293 it was “Non-toxic”; with MDA-MB-231 [15], “tde”; with MDA-MB-231 [16], 29.7%. The outcome in the data set with MDA-MB-231 [11] was inactive.

Turning to `CC(C)c1ccc2c(c1)CC[C@H]1[C@](C)(CNS(=O)(=O)c3ccc(C=O)cc3)CCC[C@]21C`, the result with MDA-MB-231 [9], in the data set on MDA-MB-231 [20], with MDA-MB-231 [21], in the data set with MDA-MB-231 [11], with MDA-MB-231 [23] and in the data set filed under Homo sapiens was Active. Moreover, the outcome in the data set with MDA-MB-231 [25] and with MDA-MB-231 [18] was Active. Moreover, the Activity in the data set on MDA-MB-231 [19] worked out at 63.41%; in the data set on MDA-MB-231 [3], 3.4%; in the data set with MDA-MB-231 [12], 6%; in the data set with MDA-MB-231 [22], 16.89%; in the data set with MDA-MB-231 [5], 0.2%; with MDA-MB-231 [6] it was 90.4%. The Activity entry is “tde” with MDA-MB-231 [15] and 19.7% in the data set on MDA-MB-231 [24]. In addition, the outcome in the data set on MCF7 was inactive.

The record behind these values is ChEMBL document CHEMBL3616432, “(+)-Dehydroabietylamine derivatives target triple-negative breast cancer” (Eur J Med Chem, 2015).
